According to US20230144436A1, “MUSCLE TARGETING COMPLEXES AND USES THEREOF FOR TREATING MYOTONIC DYSTROPHY” (Dyne Therapeutics, Inc., priority 2020, published 2023):

Test system: DMPK
Test: DMPK knockdown by transfected antisense oligonucleotides in DM1 C15 myotubes at 0.5 nM and 50 nM
Type: cell-based
Details: 72 hours, qPCR; for Percent DMPK Reduction: relative to vehicle control; for Normalized DMPK Remaining: relative to vehicle control = 1.00
Procedure: Two hundred and thirty-six oligonucleotides for targeting DMPK were generated using in silico analysis. Each individual oligonucleotide was evaluated for their ability to target DMPK in cellulo at two doses—0.5 nM (low dose) and 50 nM (high dose).
Briefly, DM1 C15 immortalized myoblasts were cultured in T-75 flasks until near confluency (˜80% confluent). Myoblasts were then disrupted with trypsin and seeded into 96-well microplates at a density of 50,000 cells/well. Cells were allowed to recover overnight before the growth media was washed out and replaced with a no-serum media to induce differentiation into myotubes. Differentiation proceeded for seven days prior to treatment with DMPK-targeting oligonucleotides.
On day seven following induction of differentiation, DM1 C15 myotubes were transfected with an individual oligonucleotide using 0.3 μL of Lipofectamine MessengerMax per well. All oligonucleotides were tested at both 0.5 nM and 50 nM final concentrations in biological triplicates. After treatment with oligonucleotides, cells were incubated for 72 hours prior to being harvested for total RNA. cDNA was synthesized from the total RNA extracts and qPCR was performed to determine expression levels of DMPK in technical quadruplicate. All qPCR data were analyzed using a traditional […] method and were normalized to a plate-based negative control that comprised cells treated with vehicle control (0.3 μL/well Lipofectamine MessengerMax without any oligonucleotide). Results from these experiments are shown in Table 10. ‘Normalized DMPK Remaining’ for each antisense oligonucleotide in Table 10 refers to the expression level of DMPK in cell treated with said antisense oligonucleotide relative to the negative control that comprised cells treated with vehicle control (wherein the expression level of the negative control has been normalized to equal 1.00)

Row | Substance | Percent DMPK Reduction (0.5 nM oligonucleotide) | Normalized DMPK Remaining (0.5 nM oligonucleotide) | Percent DMPK Reduction (50 nM oligonucleotide) | Normalized DMPK Remaining (50 nM oligonucleotide)
1 | 246 (GGACGGCCCGGCUUGCUGCC; chemistry not given here) [compound 246] | 58.25% | 0.42 | 69.30% | 0.31
2 | 247 (GGGCCCGGAUCACAGGACUG; chemistry not given here) [compound 247] | 57.97% | 0.42 | 61.96% | 0.38
3 | 248 (CAAACUUGCUCAGCAGUGUC; chemistry not given here) [compound 248] | 31.45% | 0.69 | 53.93% | 0.46
4 | 249 (AAACUUGCUCAGCAGUGUCA; chemistry not given here) [compound 249] | 30.85% | 0.69 | 50.69% | 0.49
5 | 250 (CGGAUGGCCUCCAUCUCCCG; chemistry not given here) [compound 250] | 28.92% | 0.71 | 55.57% | 0.44
6 | 251 (CUCGGCCGGAAUCCGCUCCC; chemistry not given here) [compound 251] | 28.64% | 0.71 | 64.75% | 0.35
7 | 252 (UCUCGGCCGGAAUCCGCUCC; chemistry not given here) [compound 252] | 27.88% | 0.72 | 67.46% | 0.33
8 | 253 (UGCUCAGCAGUGUCAGCAGG; chemistry not given here) [compound 253] | 27.08% | 0.73 | 65.78% | 0.34
9 | 254 (UUGUCGGGUUUGAUGUCCCU; chemistry not given here) [compound 254] | 34.16% | 0.66 | 55.56% | 0.44
10 | 255 (GUUGCGGGUUUGAUGUCCC; chemistry not given here) [compound 255] | 33.31% | 0.67 | 61.07% | 0.39
11 | 256 (UCCGCCAGGUAGAAGCGCGC; chemistry not given here) [compound 256] | 27.99% | 0.72 | 80.06% | 0.20
12 | 258 (AACUUGCUCAGCAGUGUCAG; chemistry not given here) [compound 258] | 19.81% | 0.80 | 52.64% | 0.47
13 | 259 (CAGCUGCGUGAUCCACCGCC; chemistry not given here) [compound 259] | 19.03% | 0.81 | 68.34% | 0.32
14 | 261 (GAAGUCGGCCAGGCGGAUGU; chemistry not given here) [compound 261] | 18.36% | 0.82 | 44.04% | 0.56
15 | 262 (UGUCGGGUUUGAUGUCCCUG; chemistry not given here) [compound 262] | 30.09% | 0.70 | 68.14% | 0.32
16 | 263 (GGAUGGCCUCCAUCUCCCGG; chemistry not given here) [compound 263] | 24.93% | 0.75 | 60.77% | 0.39
17 | 264 (AGGAUGUUGUCGGGUUUGAU; chemistry not given here) [compound 264] | 24.19% | 0.76 | 39.48% | 0.61
18 | 265 (GUCGGGUUUGAUGUCCCUGU; chemistry not given here) [compound 265] | 28.89% | 0.71 | 64.15% | 0.36

Row | Substance | Percent DMPK Reduction (0.5 nM oligonucleotide) | Normalized DMPK Remaining (0.5 nM oligonucleotide) | Percent DMPK Reduction (50 nM oligonucleotide) | Normalized DMPK Remaining (50 nM oligonucleotide)
19 | 266 (AAUACUCCAUGACCAGGUAC; chemistry not given here) [compound 266] | 28.86% | 0.71 | 52.07% | 0.48
20 | 267 (CUUGUUCAUGAUCUUCAUGG; chemistry not given here) [compound 267] | 16.06% | 0.84 | 49.47% | 0.51
21 | 268 (UCAGUGCAUCCAAAACGUGG; chemistry not given here) [compound 268] | 15.76% | 0.84 | 42.06% | 0.58
22 | 269 (CUGUCCCGGAGACCAUCCCA; chemistry not given here) [compound 269] | 35.85% | 0.64 | 50.78% | 0.49
23 | 271 (CCCACGUAAUACUCCAUGAC; chemistry not given here) [compound 271] | 28.21% | 0.72 | 45.94% | 0.54
24 | 273 (CUGUGCACGUAGCCAAGCCG; chemistry not given here) [compound 273] | 25.67% | 0.74 | 70.10% | 0.30
25 | 274 (UGCCCAUCCACGUCAGGGCC; chemistry not given here) [compound 274] | 13.63% | 0.86 | 33.09% | 0.67
26 | 275 (AGCGCCUCCGAUAGGCCAGG; chemistry not given here) [compound 275] | 21.19% | 0.79 | 61.91% | 0.38
27 | 276 (UGUGCACGUAGCCAAGCCGG; chemistry not given here) [compound 276] | 24.74% | 0.75 | 75.09% | 0.25
28 | 277 (GACCAGGUACAGGUAGUUCU; chemistry not given here) [compound 277] | 42.85% | 0.57 | 70.95% | 0.29
29 | 279 (CAUCUCGGCCGGAAUCCGCU; chemistry not given here) [compound 279] | 20.21% | 0.80 | 59.40% | 0.41
30 | 281 (ACAGCGGUCCAGCAGGAUGU; chemistry not given here) [compound 281] | 19.94% | 0.80 | 55.14% | 0.45
31 | 282 (AAAGCGCCUCCGAUAGGCCA; chemistry not given here) [compound 282] | 19.89% | 0.80 | 62.04% | 0.38
32 | 283 (GCCAAAGAAGAAGGGAUGUG; chemistry not given here) [compound 283] | 24.87% | 0.75 | 56.19% | 0.44
33 | 284 (CACGUAAUACUCCAUGACCA; chemistry not given here) [compound 284] | 24.40% | 0.76 | 46.50% | 0.54
34 | 285 (AUCUCGGCCGGAAUCCGCUC; chemistry not given here) [compound 285] | 11.61% | 0.88 | 65.98% | 0.34
35 | 287 (GCCAUCUCGGCCGGAAUCCG; chemistry not given here) [compound 287] | 18.56% | 0.81 | 86.39% | 0.14
36 | 289 (AUGACAAUCUCCGCCAGGUA; chemistry not given here) [compound 289] | 42.38% | 0.58 | 60.47% | 0.40
